ChEMBL document CHEMBL3108718, “Replacement of the Disulfide Bridge in a KLK3-Stimulating Peptide Using Orthogonally Protected Building Blocks” (ACS Med Chem Lett, 2014)
Bridge positions count the residues as written; N and C are the ends. Square brackets hold non-standard residues; d marks the D form. Peptide text beside a SMILES is read from it. Asu = N[C@@H](CCCCCC(=O)O)C(=O)O; AllylGly = C=CC[C@H](N)C(=O)O; GABA = NCCCC(=O)O

The compounds below were run against T1, Prostate-specific antigen (Homo sapiens) (UniProt P07288) (assay: Stimulation of KLK3 (unknown origin) using S-2586 as substrate at 14 uM after 30 mins by spectrophotometric assay relative to control).
T1 sequence (whole entry): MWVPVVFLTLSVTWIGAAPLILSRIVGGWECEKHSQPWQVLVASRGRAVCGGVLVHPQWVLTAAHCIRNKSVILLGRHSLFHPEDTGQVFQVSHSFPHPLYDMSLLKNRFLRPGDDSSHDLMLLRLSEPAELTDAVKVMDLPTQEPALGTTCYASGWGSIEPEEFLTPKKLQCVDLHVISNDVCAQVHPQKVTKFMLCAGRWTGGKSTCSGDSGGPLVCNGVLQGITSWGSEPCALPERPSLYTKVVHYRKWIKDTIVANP
An Activity of 160% was found for `CC(C)C[C@@H]1NC(=O)[C@H](Cc2ccc(O)cc2)NC(=O)[C@H](CC(=O)O)NC(=O)[C@H](Cc2ccc(O)cc2)NC(=O)[C@H](CC(N)=O)NC(=O)[C@H](Cc2cnc[nH]2)NC(=O)[C@H](C)NC(=O)[C@H](Cc2ccccc2)NC(=O)[C@H](C(C)C)NC(=O)CC/C=C/C[C@@H](C(=O)O)NC(=O)[C@H](C(C)C)NC1=O` in this work.
An Activity of 250% was found for `CC(C)C[C@@H]1NC(=O)[C@H](Cc2ccc(O)cc2)NC(=O)[C@H](CC(=O)O)NC(=O)[C@H](Cc2ccc(O)cc2)NC(=O)[C@H](CC(N)=O)NC(=O)[C@H](Cc2cnc[nH]2)NC(=O)[C@H](C)NC(=O)[C@H](Cc2ccccc2)NC(=O)[C@H](C(C)C)NC(=O)[C@@H](N)CCCC[C@@H](C(=O)O)NC(=O)[C@H](C(C)C)NC1=O` in this work.
An Activity of 360% was found for `CC(C)C[C@@H]1NC(=O)[C@H](Cc2ccc(O)cc2)NC(=O)[C@H](CC(=O)O)NC(=O)[C@H](Cc2ccc(O)cc2)NC(=O)[C@H](CC(N)=O)NC(=O)[C@H](Cc2cnc[nH]2)NC(=O)[C@H](C)NC(=O)[C@H](Cc2ccccc2)NC(=O)[C@H](C(C)C)NC(=O)[C@@H](N)CSSC[C@@H](C(N)=O)NC(=O)[C@H](C(C)C)NC1=O` (H-CVFAHNYDYLVC-NH2; disulfide 1-12) in this work.
An Activity of 160% was found for `CC(C)C[C@@H]1NC(=O)[C@H](Cc2ccc(O)cc2)NC(=O)[C@H](CC(=O)O)NC(=O)[C@H](Cc2ccc(O)cc2)NC(=O)[C@H](CC(N)=O)NC(=O)[C@H](Cc2cnc[nH]2)NC(=O)[C@H](C)NC(=O)[C@H](Cc2ccccc2)NC(=O)[C@H](C(C)C)NC(=O)[C@@H](N)C/C=C/C[C@@H](C(=O)O)NC(=O)[C@H](C(C)C)NC1=O` (H-[AllylGly]VFAHNYDYLV[AllylGly]-OH; staple (E) 1-12) in this work.
An Activity of 170% was found for `CC(C)C[C@@H]1NC(=O)[C@H](Cc2ccc(O)cc2)NC(=O)[C@H](CC(=O)O)NC(=O)[C@H](Cc2ccc(O)cc2)NC(=O)[C@H](CC(N)=O)NC(=O)[C@H](Cc2cnc[nH]2)NC(=O)[C@H](C)NC(=O)[C@H](Cc2ccccc2)NC(=O)[C@H](C(C)C)NC(=O)CCCCC[C@@H](C(=O)O)NC(=O)[C@H](C(C)C)NC1=O` (VFAHNYDYLV[Asu]-OH; lactam N-11) in this work.

The compounds below were run against T1, Prostate-specific antigen (Homo sapiens) (assay: Stimulation of KLK3 (unknown origin) relative to control).
An Activity of 250% was found for `CC(C)C[C@@H]1NC(=O)[C@H](Cc2ccc(O)cc2)NC(=O)[C@H](CC(=O)O)NC(=O)[C@H](Cc2ccc(O)cc2)NC(=O)[C@H](CC(N)=O)NC(=O)[C@H](Cc2cnc[nH]2)NC(=O)[C@H](C)NC(=O)[C@H](Cc2ccccc2)NC(=O)[C@H](C(C)C)NC(=O)CCCNC(=O)[C@H](CC(=O)O)NC(=O)[C@H](C(C)C)NC1=O` (cyclo(AHNYDYLVD[GABA]VF)) in this work.
